Measured values reported in ChEMBL document CHEMBL5465560, “Selectivity Literature for EUbOPEN Chemogenomic Library” (2024).
Each block holds one compound with its values, some of them ahead of it.

Experiments:
[1] = biological target: Tyrosine-protein kinase JAK2 (Homo sapiens, UniProt O60674); experiment: Selectivity interaction (Kinase panel (Carna Biosciences)) EUB0001542aTs JAK2; settings: at 1 µM
[2] = tested on: Receptor-type tyrosine-protein kinase FLT3 (Homo sapiens), P36888 [UNDEFINED MUTATION]; experiment: Selectivity interaction (LanthaScreen Eu Kinase Binding Assay) EUB0001632a FLT3; settings: at 10 µM
Sequence of Receptor-type tyrosine-protein kinase FLT3 (Homo sapiens), P36888 [UNDEFINED MUTATION] (P36888 whole entry, looked up, change not shown): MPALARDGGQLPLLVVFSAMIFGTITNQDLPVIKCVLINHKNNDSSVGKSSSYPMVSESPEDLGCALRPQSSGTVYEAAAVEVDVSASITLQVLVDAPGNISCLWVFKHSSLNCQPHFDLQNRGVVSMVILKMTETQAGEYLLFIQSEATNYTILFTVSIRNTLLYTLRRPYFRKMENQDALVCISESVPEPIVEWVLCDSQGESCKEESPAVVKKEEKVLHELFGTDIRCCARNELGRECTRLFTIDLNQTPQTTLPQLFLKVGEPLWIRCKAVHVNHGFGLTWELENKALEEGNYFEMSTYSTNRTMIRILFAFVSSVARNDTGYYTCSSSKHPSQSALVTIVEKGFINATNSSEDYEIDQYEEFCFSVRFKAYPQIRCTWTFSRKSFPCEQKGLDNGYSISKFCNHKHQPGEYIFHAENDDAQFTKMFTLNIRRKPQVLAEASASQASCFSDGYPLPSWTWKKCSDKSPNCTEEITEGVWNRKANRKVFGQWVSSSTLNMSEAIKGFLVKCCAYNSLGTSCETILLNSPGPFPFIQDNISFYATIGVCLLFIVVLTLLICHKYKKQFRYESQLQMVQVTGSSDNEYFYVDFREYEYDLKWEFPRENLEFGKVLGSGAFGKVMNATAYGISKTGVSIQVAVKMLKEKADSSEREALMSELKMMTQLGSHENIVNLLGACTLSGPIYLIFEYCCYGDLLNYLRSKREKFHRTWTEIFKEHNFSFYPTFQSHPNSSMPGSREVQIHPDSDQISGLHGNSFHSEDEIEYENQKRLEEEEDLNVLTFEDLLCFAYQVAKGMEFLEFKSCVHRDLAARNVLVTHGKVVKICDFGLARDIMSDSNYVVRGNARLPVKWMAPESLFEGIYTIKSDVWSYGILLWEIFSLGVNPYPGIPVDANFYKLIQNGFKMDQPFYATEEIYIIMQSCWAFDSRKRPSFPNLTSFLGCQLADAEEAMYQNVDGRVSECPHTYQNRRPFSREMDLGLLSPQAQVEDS

[3] = biological target: N-lysine methyltransferase SMYD2 (Homo sapiens) (UniProt Q9NRG4); experiment: Selectivity interaction (Methyltransferase screen (radiometric assays, panel of 8 PRMTs, 21 protein lysine methyltransferases, 3 DNA methyltransferases, and one RNA methyltransferase)) EUB0000272b SMYD2
Sequence of N-lysine methyltransferase SMYD2 (Homo sapiens) (Q9NRG4 whole entry): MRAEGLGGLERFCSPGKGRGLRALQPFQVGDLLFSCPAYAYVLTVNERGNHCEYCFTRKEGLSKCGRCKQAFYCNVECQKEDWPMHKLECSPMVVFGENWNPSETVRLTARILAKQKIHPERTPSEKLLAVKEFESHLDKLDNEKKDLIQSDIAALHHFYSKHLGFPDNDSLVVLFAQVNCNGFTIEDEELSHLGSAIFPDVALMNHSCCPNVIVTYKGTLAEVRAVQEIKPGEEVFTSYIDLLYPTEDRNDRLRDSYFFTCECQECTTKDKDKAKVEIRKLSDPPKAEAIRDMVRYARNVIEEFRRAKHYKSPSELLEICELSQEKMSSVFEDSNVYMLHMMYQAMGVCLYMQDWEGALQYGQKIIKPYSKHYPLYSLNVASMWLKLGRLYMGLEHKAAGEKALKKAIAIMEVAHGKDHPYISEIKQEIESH

[4] = biological target: T1, Serine/threonine-protein kinase 4 (Homo sapiens) (UniProt Q13043); experiment: Selectivity interaction (KinomeScan (DiscoverX)) EUB0000229b STK4; settings: at 10 µM
T1 sequence (whole entry): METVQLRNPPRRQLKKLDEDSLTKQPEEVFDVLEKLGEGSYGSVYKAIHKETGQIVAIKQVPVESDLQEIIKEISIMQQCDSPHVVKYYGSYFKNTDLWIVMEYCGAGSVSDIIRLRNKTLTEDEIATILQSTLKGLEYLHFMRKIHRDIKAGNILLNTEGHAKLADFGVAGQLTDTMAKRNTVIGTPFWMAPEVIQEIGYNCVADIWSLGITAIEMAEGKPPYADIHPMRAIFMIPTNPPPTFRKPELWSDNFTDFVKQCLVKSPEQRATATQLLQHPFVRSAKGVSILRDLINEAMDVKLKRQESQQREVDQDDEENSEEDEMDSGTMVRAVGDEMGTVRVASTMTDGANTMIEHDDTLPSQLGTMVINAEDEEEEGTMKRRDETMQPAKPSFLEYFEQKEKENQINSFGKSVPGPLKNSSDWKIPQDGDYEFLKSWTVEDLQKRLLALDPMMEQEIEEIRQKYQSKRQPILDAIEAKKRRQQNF

[5] = biological target: T2, Mitogen-activated protein kinase kinase kinase 3 (Homo sapiens) (UniProt Q99759); experiment: Selectivity interaction (KinomeScan (DiscoverX)) EUB0000092b MAP3K3; settings: at 10 µM
T2 sequence (whole entry): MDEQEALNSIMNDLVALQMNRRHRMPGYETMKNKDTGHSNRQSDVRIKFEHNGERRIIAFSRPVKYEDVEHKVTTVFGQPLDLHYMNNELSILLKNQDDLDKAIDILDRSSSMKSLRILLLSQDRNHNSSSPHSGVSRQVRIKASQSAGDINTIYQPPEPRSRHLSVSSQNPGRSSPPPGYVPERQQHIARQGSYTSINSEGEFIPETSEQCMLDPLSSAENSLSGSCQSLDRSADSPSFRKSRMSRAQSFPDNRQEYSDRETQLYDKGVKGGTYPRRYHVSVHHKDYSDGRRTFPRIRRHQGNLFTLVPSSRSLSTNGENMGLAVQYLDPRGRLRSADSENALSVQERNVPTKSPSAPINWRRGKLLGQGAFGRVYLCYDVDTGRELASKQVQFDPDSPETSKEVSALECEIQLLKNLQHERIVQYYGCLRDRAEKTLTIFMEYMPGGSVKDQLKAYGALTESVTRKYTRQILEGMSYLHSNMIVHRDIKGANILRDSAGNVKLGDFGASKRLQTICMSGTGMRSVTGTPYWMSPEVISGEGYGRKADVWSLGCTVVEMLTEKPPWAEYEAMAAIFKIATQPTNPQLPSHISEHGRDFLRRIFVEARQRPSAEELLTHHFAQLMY

[6] = biological target: T3, Ephrin type-B receptor 3 (Homo sapiens) (UniProt P54753); experiment: Selectivity interaction (Upstate Kinase Profiler service (Millipore)) EUB0000056c EPHB3; settings: at 1 µM
T3 sequence (whole entry): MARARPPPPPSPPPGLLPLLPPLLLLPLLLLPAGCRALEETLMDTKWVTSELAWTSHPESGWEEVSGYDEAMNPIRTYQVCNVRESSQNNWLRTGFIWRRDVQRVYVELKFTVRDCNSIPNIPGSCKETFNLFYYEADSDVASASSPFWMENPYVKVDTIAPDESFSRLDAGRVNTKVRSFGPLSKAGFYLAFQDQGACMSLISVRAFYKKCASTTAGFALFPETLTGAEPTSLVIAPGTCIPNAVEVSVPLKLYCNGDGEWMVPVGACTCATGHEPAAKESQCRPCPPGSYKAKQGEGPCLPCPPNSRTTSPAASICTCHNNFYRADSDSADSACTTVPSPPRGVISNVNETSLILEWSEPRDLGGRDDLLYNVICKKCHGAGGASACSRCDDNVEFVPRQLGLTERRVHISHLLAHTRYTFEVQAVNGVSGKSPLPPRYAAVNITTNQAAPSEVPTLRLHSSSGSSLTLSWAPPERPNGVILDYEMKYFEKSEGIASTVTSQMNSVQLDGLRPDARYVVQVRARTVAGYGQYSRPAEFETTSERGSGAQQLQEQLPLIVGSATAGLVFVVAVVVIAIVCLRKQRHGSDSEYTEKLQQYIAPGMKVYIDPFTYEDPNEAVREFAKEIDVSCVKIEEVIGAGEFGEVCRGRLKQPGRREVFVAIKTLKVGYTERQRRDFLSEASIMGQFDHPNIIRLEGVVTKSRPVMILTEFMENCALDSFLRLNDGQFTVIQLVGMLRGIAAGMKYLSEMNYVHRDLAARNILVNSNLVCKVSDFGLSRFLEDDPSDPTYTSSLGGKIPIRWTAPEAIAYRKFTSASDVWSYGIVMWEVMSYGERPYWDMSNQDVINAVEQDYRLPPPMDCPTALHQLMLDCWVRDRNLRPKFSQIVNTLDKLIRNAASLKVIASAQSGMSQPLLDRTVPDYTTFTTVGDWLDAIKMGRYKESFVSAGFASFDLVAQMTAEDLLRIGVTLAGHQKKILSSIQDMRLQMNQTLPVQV

[7] = biological target: Homeodomain-interacting protein kinase 1 (Homo sapiens, UniProt Q86Z02); experiment: Selectivity interaction (KinomeScan (DiscoverX)) EUB0000655a HIPK1; settings: at 10 µM
Sequence of Homeodomain-interacting protein kinase 1 (Q86Z02 whole entry, looked up): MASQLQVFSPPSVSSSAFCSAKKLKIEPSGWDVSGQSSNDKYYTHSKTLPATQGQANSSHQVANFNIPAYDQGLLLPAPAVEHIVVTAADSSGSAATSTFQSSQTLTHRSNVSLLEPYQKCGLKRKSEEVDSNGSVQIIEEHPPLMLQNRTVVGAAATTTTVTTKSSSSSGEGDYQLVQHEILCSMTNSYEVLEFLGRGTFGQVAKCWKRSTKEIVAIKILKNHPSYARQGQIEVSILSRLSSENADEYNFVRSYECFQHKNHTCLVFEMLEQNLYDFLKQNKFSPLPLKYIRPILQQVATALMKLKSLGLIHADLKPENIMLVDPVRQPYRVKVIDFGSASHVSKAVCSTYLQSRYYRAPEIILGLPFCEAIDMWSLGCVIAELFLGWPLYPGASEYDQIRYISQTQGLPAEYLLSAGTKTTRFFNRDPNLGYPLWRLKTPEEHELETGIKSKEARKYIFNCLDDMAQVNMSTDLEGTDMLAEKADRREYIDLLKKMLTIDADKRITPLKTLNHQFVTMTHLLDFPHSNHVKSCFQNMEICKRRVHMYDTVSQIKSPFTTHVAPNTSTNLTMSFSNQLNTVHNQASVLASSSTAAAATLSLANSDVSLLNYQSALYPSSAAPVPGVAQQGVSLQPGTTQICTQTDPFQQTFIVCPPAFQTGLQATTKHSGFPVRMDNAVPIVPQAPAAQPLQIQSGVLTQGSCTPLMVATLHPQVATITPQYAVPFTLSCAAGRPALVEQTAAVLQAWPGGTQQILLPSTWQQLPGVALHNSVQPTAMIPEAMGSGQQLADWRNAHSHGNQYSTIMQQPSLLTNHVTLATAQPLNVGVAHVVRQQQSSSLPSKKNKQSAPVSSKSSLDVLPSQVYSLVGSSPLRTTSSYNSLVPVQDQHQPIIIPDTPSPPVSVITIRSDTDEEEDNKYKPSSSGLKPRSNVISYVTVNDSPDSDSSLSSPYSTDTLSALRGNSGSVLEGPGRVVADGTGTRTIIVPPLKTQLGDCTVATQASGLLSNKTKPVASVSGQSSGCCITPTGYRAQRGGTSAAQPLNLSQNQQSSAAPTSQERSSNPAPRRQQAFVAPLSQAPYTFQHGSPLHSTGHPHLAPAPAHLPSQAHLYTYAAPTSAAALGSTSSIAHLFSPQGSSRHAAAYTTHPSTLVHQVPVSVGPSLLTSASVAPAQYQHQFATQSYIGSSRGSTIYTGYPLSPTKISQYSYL

[8] = biological target: Fibroblast growth factor receptor 3 (Homo sapiens, UniProt P22607); experiment: Selectivity interaction (Kinase panel (DSF assay)) EUB0001559a FGFR3
Sequence of Fibroblast growth factor receptor 3 (P22607 23-806 limits assumed): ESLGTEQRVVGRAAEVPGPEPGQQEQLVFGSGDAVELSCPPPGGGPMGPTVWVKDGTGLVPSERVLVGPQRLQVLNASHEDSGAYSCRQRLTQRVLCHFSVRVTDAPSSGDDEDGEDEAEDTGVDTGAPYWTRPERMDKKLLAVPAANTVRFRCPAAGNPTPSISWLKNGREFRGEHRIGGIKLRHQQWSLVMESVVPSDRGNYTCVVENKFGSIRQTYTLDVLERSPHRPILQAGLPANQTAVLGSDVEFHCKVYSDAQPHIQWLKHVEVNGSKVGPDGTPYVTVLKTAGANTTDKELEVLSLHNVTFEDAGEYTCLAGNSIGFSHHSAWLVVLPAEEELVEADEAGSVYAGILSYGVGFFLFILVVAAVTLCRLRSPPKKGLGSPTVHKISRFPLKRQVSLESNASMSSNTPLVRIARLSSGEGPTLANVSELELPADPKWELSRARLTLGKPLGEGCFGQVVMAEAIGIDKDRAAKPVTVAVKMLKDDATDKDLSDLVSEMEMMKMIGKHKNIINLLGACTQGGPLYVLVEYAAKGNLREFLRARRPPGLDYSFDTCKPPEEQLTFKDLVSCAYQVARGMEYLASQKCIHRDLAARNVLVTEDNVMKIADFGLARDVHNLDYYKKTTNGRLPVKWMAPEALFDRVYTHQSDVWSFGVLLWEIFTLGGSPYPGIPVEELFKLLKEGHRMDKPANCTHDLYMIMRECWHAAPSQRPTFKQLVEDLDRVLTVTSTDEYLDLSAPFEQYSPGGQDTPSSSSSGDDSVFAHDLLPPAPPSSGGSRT

[9] = biological target: Tyrosine-protein kinase HCK (Homo sapiens) (UniProt P08631); experiment: Selectivity interaction (SelectScreen profiling (Invitrogen)) EUB0000607a HCK; settings: at 2 µM
Sequence of Tyrosine-protein kinase HCK (Homo sapiens) (P08631 2-526 limits assumed): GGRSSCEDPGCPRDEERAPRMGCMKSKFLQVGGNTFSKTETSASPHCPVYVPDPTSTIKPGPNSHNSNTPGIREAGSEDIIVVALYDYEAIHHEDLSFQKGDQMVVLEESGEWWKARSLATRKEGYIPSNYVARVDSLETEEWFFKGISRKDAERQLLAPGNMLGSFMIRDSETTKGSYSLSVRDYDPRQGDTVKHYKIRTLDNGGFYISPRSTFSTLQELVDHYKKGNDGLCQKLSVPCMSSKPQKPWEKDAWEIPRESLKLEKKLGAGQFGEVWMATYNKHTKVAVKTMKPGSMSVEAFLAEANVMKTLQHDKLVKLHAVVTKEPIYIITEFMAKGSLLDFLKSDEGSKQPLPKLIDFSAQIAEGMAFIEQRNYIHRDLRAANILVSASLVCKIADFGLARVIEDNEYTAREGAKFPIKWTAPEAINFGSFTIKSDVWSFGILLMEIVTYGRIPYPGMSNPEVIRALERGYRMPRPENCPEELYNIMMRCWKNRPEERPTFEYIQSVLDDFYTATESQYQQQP

Sequence of Tyrosine-protein kinase JAK2 (O60674 whole entry): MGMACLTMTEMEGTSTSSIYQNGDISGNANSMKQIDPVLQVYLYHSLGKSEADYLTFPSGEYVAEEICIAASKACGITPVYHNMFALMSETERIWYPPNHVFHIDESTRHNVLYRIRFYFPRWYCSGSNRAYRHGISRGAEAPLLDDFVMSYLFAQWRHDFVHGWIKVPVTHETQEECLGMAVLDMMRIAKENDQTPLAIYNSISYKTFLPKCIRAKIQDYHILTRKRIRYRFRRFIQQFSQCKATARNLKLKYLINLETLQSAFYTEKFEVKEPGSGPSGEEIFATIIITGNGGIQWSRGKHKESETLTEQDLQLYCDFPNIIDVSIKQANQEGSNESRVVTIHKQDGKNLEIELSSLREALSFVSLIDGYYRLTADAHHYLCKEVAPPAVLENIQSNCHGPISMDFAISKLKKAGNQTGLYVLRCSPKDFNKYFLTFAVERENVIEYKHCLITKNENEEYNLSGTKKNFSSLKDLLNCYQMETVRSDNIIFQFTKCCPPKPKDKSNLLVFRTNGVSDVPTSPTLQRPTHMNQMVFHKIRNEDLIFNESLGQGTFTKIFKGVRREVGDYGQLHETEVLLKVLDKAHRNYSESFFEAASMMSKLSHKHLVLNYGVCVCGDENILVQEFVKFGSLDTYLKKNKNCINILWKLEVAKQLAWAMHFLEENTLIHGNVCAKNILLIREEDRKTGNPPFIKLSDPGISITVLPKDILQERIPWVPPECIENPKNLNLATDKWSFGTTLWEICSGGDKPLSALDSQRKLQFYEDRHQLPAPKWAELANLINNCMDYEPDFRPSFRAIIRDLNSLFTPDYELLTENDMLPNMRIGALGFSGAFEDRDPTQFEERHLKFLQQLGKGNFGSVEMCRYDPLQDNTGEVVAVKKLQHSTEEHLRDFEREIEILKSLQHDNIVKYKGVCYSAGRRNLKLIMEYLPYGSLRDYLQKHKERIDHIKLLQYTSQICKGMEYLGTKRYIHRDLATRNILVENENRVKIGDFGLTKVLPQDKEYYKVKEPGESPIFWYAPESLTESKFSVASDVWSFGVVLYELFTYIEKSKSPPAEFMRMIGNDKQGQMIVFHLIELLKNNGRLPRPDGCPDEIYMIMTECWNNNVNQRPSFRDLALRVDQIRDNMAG

SMILES: Cn1cc(-n2cnc3c(NCc4nc5cc(Cl)c(Cl)cc5[nH]4)nc(N4CCOCC4)nc32)cn1
% of inhibition [2]: -1.89%

SMILES: COc1cc(N(C)c2ccnc3ccc(C(F)(F)F)cc23)cc(OC)c1OC
% binding [4]: 99%

SMILES: CCC(=O)N1CCN(c2ccc(-n3c(=O)ccc4cnc5ccc(-c6cnc7ccccc7c6)cc5c43)cc2C(F)(F)F)CC1
% of control [5]: 75%

SMILES: CN(C)CCOc1ccc(-c2nc(-c3ccncc3)c(-c3ccc4c(c3)CC/C4=N\O)[nH]2)cc1
% of control [7]: 11%

SMILES: CNC(=O)Nc1ccc(-c2nc(N3CC4CCC(C3)O4)c3cnn(C4CCC5(CC4)OCCO5)c3n2)cc1
% of inhibition [9]: 5%

Next, values leading:

% of inhibition [1]: 101%
SMILES: Cn1cc(Nc2nccc(N3CC4CCC(C3)N4C(=O)[C@@H]3CC3(F)F)n2)cn1

% of activity ([3]; at 1 µM): 94.3%
% of activity ([3]; at 10 µM): 94.3%
SMILES: Cc1cc(C)cc([C@H]2c3cc(C)ccc3NC(=O)CN2C(=O)c2ccc(Br)s2)c1

% of inhibition [6]: -22%
SMILES: Cc1ccc(-c2ccc3c(ccc4sc5c(c43)NC[C@@H](C)NC5=O)n2)cn1

dTM [8]: -0.3 K
SMILES: CN(C(=O)c1cnn2cccnc12)c1cc2c(cc1N1CCOCC1)C(=O)N(C[C@@H](F)C(C)(C)O)C2
